# According to patent US20200370087A1, “METHOD FOR DETERMINING MICROBIAL SUSCEPTIBILITY TO ANTIBIOTIC AGENTS” (Ascilion AB, priority 2017, published 2020):
# Assays:
# [1] = test system: Staphylococcus aureus (ATCC 29213); experiment: Glucose consumption susceptibility test, blood culture diluted in MHB with glucose (Example 1); assay type: cell-based; design: glucose concentration, t = 0 / glucose concentration, t = 60 / glucose concentration, t = 120 / glucose concentration, t = 180 / glucose concentration, t = 240 / dC/dT (rate of change in glucose concentration): unit not given here; settings: S. aureus; for glucose concentration, t = 60: 60 minutes; for glucose concentration, t = 120: 120 minutes; for glucose concentration, t = 180: 180 minutes; for glucose concentration, t = 240: 240 minutes
# Description: (§1) Strains of Escherichia coli (ATCC 25922), Enterococcus faecalis (ATCC 29212) and Staphylococcus aureus (ATCC 29213) were inoculated in blood culture bottles (SVA, Uppsala, Sweden) and cultivated according to the manufacturer's instructions until positive.
# (§2) Medium from each blood culture bottle was diluted 1:100 with cation adjusted Mueller-Hinton broth (SVA, Uppsala, Sweden) supplemented with glucose to a concentration of 1.0 mg/mL.
# (§3) Glucose concentrations were measured at 0, 60, 120, 180, and 240 minutes using a WaveSense Jazz glucometer (AgaMatrix, Inc., Salem, N.H., USA) with accompanying test strips.
# (§4) Susceptibility scores corresponding to MIC values were calculated as described above. A 80% threshold was applied, i.e. the lowest concentration of antibiotic that entailed a rate of change in glucose concentration that was equal to or less than 80% of the reference was selected as the Minimal Inhibitory Concentration. The rate of change was calculated between the measurements at 60 and 180 minutes.
# [2] = test system: Enterococcus faecalis (ATCC 29212); experiment: as above; assay type: cell-based; design: glucose concentration, t = 0 / glucose concentration, t = 60 / glucose concentration, t = 120 / glucose concentration, t = 180 / glucose concentration, t = 240 / dC/dT (rate of change in glucose concentration): unit not given here; settings: for F = the rate of change in glucose concentration in relation to the reference / dC/dT (rate of change in glucose concentration) / glucose concentration, t = 0 / glucose concentration, t = 60 / glucose concentration, t = 120 / glucose concentration, t = 180 / glucose concentration, t = 240: E. faecalis; for glucose concentration, t = 0: 0 minutes; for glucose concentration, t = 60: 60 minutes; for glucose concentration, t = 120: 120 minutes; for glucose concentration, t = 180: 180 minutes; for glucose concentration, t = 240: 240 minutes
# Description: as §1, §2, §3, §4
# [3] = test system: Staphylococcus aureus ATCC 29213; settings: S.aureus, cited from earlier work
structure (smiles),measurement,setting,value
"CN[C@H](CC(C)C)C(=O)N[C@H]1C(=O)N[C@@H](CC(N)=O)C(=O)N[C@H]2C(=O)N[C@H]3C(=O)N[C@H](C(=O)N[C@H](C(=O)O)c4cc(O)cc(O)c4-c4cc3ccc4O)[C@H](O)c3ccc(c(Cl)c3)Oc3cc2cc(c3O[C@@H]2O[C@H](CO)[C@@H](O)[C@H](O)[C@H]2O[C@H]2C[C@](C)(N)[C@H](O)[C@H](C)O2)Oc2ccc(cc2Cl)[C@H]1O [Vancomycin, vancomycin]",F = the rate of change in glucose concentration in relation to the reference,[1]; antibiotic 0.25 μg/mL,75%
same,dC/dT (rate of change in glucose concentration),[1]; antibiotic 0.25 μg/mL,25
same,"glucose concentration, t = 60",[1]; antibiotic 0.25 μg/mL,142
same,"glucose concentration, t = 120",[1]; antibiotic 0.25 μg/mL,133
same,"glucose concentration, t = 180",[1]; antibiotic 0.25 μg/mL,92
same,"glucose concentration, t = 240",[1]; antibiotic 0.25 μg/mL,42
same,F = the rate of change in glucose concentration in relation to the reference,[1]; antibiotic 0.5 μg/mL,84%
same,dC/dT (rate of change in glucose concentration),[1]; antibiotic 0.5 μg/mL,28
same,"glucose concentration, t = 60",[1]; antibiotic 0.5 μg/mL,156
same,"glucose concentration, t = 120",[1]; antibiotic 0.5 μg/mL,142
same,"glucose concentration, t = 180",[1]; antibiotic 0.5 μg/mL,100
same,"glucose concentration, t = 240",[1]; antibiotic 0.5 μg/mL,51
same,F = the rate of change in glucose concentration in relation to the reference,[1]; antibiotic 1 μg/mL,96%
same,dC/dT (rate of change in glucose concentration),[1]; antibiotic 1 μg/mL,32
same,"glucose concentration, t = 60",[1]; antibiotic 1 μg/mL,161
same,"glucose concentration, t = 120",[1]; antibiotic 1 μg/mL,140
same,"glucose concentration, t = 180",[1]; antibiotic 1 μg/mL,97
same,"glucose concentration, t = 240",[1]; antibiotic 1 μg/mL,51
same,F = the rate of change in glucose concentration in relation to the reference,[1]; antibiotic 2 μg/mL,88%
same,dC/dT (rate of change in glucose concentration),[1]; antibiotic 2 μg/mL,30
same,"glucose concentration, t = 60",[1]; antibiotic 2 μg/mL,160
same,"glucose concentration, t = 120",[1]; antibiotic 2 μg/mL,143
same,"glucose concentration, t = 180",[1]; antibiotic 2 μg/mL,101
same,"glucose concentration, t = 240",[1]; antibiotic 2 μg/mL,53
same,F = the rate of change in glucose concentration in relation to the reference,[1]; antibiotic 4 μg/mL,39%
same,dC/dT (rate of change in glucose concentration),[1]; antibiotic 4 μg/mL,13
same,"glucose concentration, t = 60",[1]; antibiotic 4 μg/mL,157
same,"glucose concentration, t = 120",[1]; antibiotic 4 μg/mL,147
same,"glucose concentration, t = 180",[1]; antibiotic 4 μg/mL,131
same,"glucose concentration, t = 240",[1]; antibiotic 4 μg/mL,107
same,F = the rate of change in glucose concentration in relation to the reference,[1]; antibiotic 8 μg/mL,6%
same,dC/dT (rate of change in glucose concentration),[1]; antibiotic 8 μg/mL,2
same,"glucose concentration, t = 60",[1]; antibiotic 8 μg/mL,150
same,"glucose concentration, t = 120",[1]; antibiotic 8 μg/mL,150
same,"glucose concentration, t = 180",[1]; antibiotic 8 μg/mL,146
same,"glucose concentration, t = 240",[1]; antibiotic 8 μg/mL,149
same,F = the rate of change in glucose concentration in relation to the reference,[1]; antibiotic 16 μg/mL,7%
same,dC/dT (rate of change in glucose concentration),[1]; antibiotic 16 μg/mL,3
same,"glucose concentration, t = 60",[1]; antibiotic 16 μg/mL,157
same,"glucose concentration, t = 120",[1]; antibiotic 16 μg/mL,153
same,"glucose concentration, t = 180",[1]; antibiotic 16 μg/mL,152
same,"glucose concentration, t = 240",[1]; antibiotic 16 μg/mL,149
same,F = the rate of change in glucose concentration in relation to the reference,[1]; antibiotic 32 μg/mL,13%
same,dC/dT (rate of change in glucose concentration),[1]; antibiotic 32 μg/mL,5
same,"glucose concentration, t = 60",[1]; antibiotic 32 μg/mL,157
same,"glucose concentration, t = 120",[1]; antibiotic 32 μg/mL,140
same,"glucose concentration, t = 180",[1]; antibiotic 32 μg/mL,148
same,"glucose concentration, t = 240",[1]; antibiotic 32 μg/mL,146
same,F = the rate of change in glucose concentration in relation to the reference,[2]; antibiotic 0.0625 μg/mL,93%
same,dC/dT (rate of change in glucose concentration),[2]; antibiotic 0.0625 μg/mL,34
same,"glucose concentration, t = 0",[2]; antibiotic 0.0625 μg/mL,145
same,"glucose concentration, t = 60",[2]; antibiotic 0.0625 μg/mL,156
same,"glucose concentration, t = 120",[2]; antibiotic 0.0625 μg/mL,139
same,"glucose concentration, t = 180",[2]; antibiotic 0.0625 μg/mL,89
same,F = the rate of change in glucose concentration in relation to the reference,[2]; antibiotic 0.125 μg/mL,83%
same,dC/dT (rate of change in glucose concentration),[2]; antibiotic 0.125 μg/mL,30
same,"glucose concentration, t = 0",[2]; antibiotic 0.125 μg/mL,148
same,"glucose concentration, t = 60",[2]; antibiotic 0.125 μg/mL,154
same,"glucose concentration, t = 120",[2]; antibiotic 0.125 μg/mL,149
same,"glucose concentration, t = 180",[2]; antibiotic 0.125 μg/mL,94
same,F = the rate of change in glucose concentration in relation to the reference,[2]; antibiotic 0.25 μg/mL,82%
same,dC/dT (rate of change in glucose concentration),[2]; antibiotic 0.25 μg/mL,30
same,"glucose concentration, t = 0",[2]; antibiotic 0.25 μg/mL,143
same,"glucose concentration, t = 60",[2]; antibiotic 0.25 μg/mL,155
same,"glucose concentration, t = 120",[2]; antibiotic 0.25 μg/mL,146
same,"glucose concentration, t = 180",[2]; antibiotic 0.25 μg/mL,96
same,F = the rate of change in glucose concentration in relation to the reference,[2]; antibiotic 0.5 μg/mL,82%
same,dC/dT (rate of change in glucose concentration),[2]; antibiotic 0.5 μg/mL,30
same,"glucose concentration, t = 0",[2]; antibiotic 0.5 μg/mL,154
same,"glucose concentration, t = 60",[2]; antibiotic 0.5 μg/mL,155
same,"glucose concentration, t = 120",[2]; antibiotic 0.5 μg/mL,148
same,"glucose concentration, t = 180",[2]; antibiotic 0.5 μg/mL,96
same,F = the rate of change in glucose concentration in relation to the reference,[2]; antibiotic 1 μg/mL,75%
same,dC/dT (rate of change in glucose concentration),[2]; antibiotic 1 μg/mL,27
same,"glucose concentration, t = 0",[2]; antibiotic 1 μg/mL,151
same,"glucose concentration, t = 60",[2]; antibiotic 1 μg/mL,164
same,"glucose concentration, t = 120",[2]; antibiotic 1 μg/mL,153
same,"glucose concentration, t = 180",[2]; antibiotic 1 μg/mL,110
same,F = the rate of change in glucose concentration in relation to the reference,[2]; antibiotic 2 μg/mL,29%
same,dC/dT (rate of change in glucose concentration),[2]; antibiotic 2 μg/mL,11
same,"glucose concentration, t = 0",[2]; antibiotic 2 μg/mL,147
same,"glucose concentration, t = 60",[2]; antibiotic 2 μg/mL,160
same,"glucose concentration, t = 120",[2]; antibiotic 2 μg/mL,152
same,"glucose concentration, t = 180",[2]; antibiotic 2 μg/mL,139
same,"glucose concentration, t = 240",[2]; antibiotic 2 μg/mL,94
same,F = the rate of change in glucose concentration in relation to the reference,[2]; antibiotic 4 μg/mL,19%
same,dC/dT (rate of change in glucose concentration),[2]; antibiotic 4 μg/mL,7
same,"glucose concentration, t = 0",[2]; antibiotic 4 μg/mL,147
same,"glucose concentration, t = 60",[2]; antibiotic 4 μg/mL,162
same,"glucose concentration, t = 120",[2]; antibiotic 4 μg/mL,153
same,"glucose concentration, t = 180",[2]; antibiotic 4 μg/mL,148
same,"glucose concentration, t = 240",[2]; antibiotic 4 μg/mL,149
same,F = the rate of change in glucose concentration in relation to the reference,[2]; antibiotic 8 μg/mL,7%
same,dC/dT (rate of change in glucose concentration),[2]; antibiotic 8 μg/mL,3
same,"glucose concentration, t = 0",[2]; antibiotic 8 μg/mL,150
same,"glucose concentration, t = 60",[2]; antibiotic 8 μg/mL,156
same,"glucose concentration, t = 120",[2]; antibiotic 8 μg/mL,146
same,"glucose concentration, t = 180",[2]; antibiotic 8 μg/mL,151
same,"glucose concentration, t = 240",[2]; antibiotic 8 μg/mL,145
same,MIC,"[2]; Enterococcus faecalis, ATCC29212, read-out: MIC, Measured",1 µg/mL
same,"MIC, EUCAST, range in parentheses",[3]; range obtained by EUCAST from ISO 20776-1: 2006,(0.5-2) ug/mL
same,"MIC, EUCAST","[3]; reference value, Mueller-Hinton agar, incubation 18±2 h",1 µg/mL
